Publication PMC6891286, “Towards the Development of an In vivo Chemical Probe for Cyclin G Associated Kinase (GAK)” (Molecules, 2019)

Columns and labels:
Assay in all cases: KINOMEscan
Type in all cases: binding
SIK2 = target: T1, SIK2 (Homo sapiens, UniProt Q9H0K1); settings: 35 at 1 µM; read-out: % inhibition
T1 construct: purchased Eurofins DiscoverX (KINOMEscan)
Procedure: (§1) KinomeScan Assay on 35 was performed as previously described at EuroFins DiscoverX (Fremont, CA, USA).

TRKC = target: T2, TRKC (Homo sapiens, UniProt Q16288); settings: 35 at 1 µM; read-out: % inhibition
T2 construct: purchased Eurofins DiscoverX (KINOMEscan)
Procedure: as §1

WEE1 = target: T3, WEE1 (Homo sapiens, UniProt P30291); settings: 35 at 1 µM; read-out: % inhibition
T3 construct: purchased EuroFins DiscoverX (Fremont, CA, USA)
T3 sequence (P30291 whole entry): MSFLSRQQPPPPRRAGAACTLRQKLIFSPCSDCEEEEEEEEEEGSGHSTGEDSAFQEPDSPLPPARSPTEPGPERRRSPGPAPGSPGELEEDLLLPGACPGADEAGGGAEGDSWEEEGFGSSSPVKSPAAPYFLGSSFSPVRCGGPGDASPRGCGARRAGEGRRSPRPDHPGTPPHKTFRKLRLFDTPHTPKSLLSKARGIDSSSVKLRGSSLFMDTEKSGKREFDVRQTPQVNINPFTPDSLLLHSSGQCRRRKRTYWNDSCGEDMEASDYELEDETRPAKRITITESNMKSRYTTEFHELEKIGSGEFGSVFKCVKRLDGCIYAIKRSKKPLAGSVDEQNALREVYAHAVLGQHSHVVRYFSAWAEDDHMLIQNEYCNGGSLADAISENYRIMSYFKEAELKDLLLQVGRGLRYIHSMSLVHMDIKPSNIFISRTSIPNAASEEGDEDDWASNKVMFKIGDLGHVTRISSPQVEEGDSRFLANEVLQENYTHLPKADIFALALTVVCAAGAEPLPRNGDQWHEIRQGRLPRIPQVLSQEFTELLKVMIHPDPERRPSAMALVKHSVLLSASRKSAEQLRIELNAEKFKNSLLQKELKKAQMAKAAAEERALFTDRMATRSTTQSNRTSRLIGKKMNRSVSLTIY
Procedure: as §1

CAMK2A = target: T4, CAMK2A (Homo sapiens, UniProt Q9UQM7); settings: 35 at 1 µM; read-out: % inhibition
T4 construct: purchased Eurofins DiscoverX (KINOMEscan)
Procedure: as §1

PIP5K2C = target: T5, PIP5K2C (Homo sapiens, UniProt Q8TBX8); settings: 35 at 1 µM; read-out: % inhibition
T5 construct: purchased Eurofins DiscoverX (KINOMEscan)
Procedure: as §1

DAPK3 = target: T6, DAPK3 (Homo sapiens, UniProt O43293); settings: 35 at 1 µM; read-out: % inhibition
T6 construct: purchased Eurofins DiscoverX (KINOMEscan)
Procedure: as §1

p38-beta = target: T7, p38-beta (Homo sapiens, UniProt Q15759); settings: 35 at 1 µM; read-out: % inhibition
T7 construct: purchased Eurofins DiscoverX (KINOMEscan)
Procedure: as §1

CAMK4 = target: T8, CAMK4 (Homo sapiens, UniProt Q16566); settings: 35 at 1 µM; read-out: % inhibition
T8 construct: purchased Eurofins DiscoverX (KINOMEscan)
Procedure: as §1

[1] = target: T9, EGFR(L747-E749del, A750P) (Homo sapiens, UniProt P00533, A750P/DEL747-749); settings: 35 at 1 µM; read-out: % inhibition
T9 construct: purchased Eurofins DiscoverX (KINOMEscan)
Procedure: as §1

CAMK1B = target: T10, CAMK1B (Homo sapiens, UniProt Q6P2M8); settings: 35 at 1 µM; read-out: % inhibition
T10 construct: purchased Eurofins DiscoverX (KINOMEscan)
T10 sequence (Q6P2M8 whole entry): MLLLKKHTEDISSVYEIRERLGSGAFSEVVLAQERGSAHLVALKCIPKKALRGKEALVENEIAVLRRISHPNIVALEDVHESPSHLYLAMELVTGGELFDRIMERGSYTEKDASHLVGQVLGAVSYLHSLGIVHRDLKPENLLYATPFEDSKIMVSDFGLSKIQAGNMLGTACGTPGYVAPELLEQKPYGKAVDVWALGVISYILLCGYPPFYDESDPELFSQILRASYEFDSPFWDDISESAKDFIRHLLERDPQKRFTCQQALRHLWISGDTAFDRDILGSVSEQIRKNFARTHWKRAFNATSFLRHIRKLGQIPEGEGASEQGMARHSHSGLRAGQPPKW
Procedure: as §1

FLT3(N841I) = target: T11, FLT3(N841I) (Homo sapiens, UniProt P36888, N841I); settings: 35 at 1 µM; read-out: % inhibition
T11 construct: purchased Eurofins DiscoverX (KINOMEscan)
Procedure: as §1

CLK3 = target: T12, CLK3 (Homo sapiens, UniProt P49761); settings: 35 at 1 µM; read-out: % inhibition
T12 construct: purchased Eurofins DiscoverX (KINOMEscan)
T12 sequence (P49761 whole entry): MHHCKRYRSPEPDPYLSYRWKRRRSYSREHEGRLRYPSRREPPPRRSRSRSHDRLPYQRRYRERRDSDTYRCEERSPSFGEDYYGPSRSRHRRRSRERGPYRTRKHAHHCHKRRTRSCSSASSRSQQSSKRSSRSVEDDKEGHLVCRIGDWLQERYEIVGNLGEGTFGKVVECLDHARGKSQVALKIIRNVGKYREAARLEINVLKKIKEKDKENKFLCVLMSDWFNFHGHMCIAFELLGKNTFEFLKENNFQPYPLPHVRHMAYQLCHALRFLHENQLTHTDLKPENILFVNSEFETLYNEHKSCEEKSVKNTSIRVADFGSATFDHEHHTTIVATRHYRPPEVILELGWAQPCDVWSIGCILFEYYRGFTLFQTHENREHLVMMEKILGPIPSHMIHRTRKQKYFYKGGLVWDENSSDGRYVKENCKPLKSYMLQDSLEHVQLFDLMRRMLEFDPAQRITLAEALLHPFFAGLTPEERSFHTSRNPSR
Procedure: as §1

FLT1 = target: T13, FLT1 (Homo sapiens, UniProt P17948); settings: 35 at 1 µM; read-out: % inhibition
T13 construct: purchased Eurofins DiscoverX (KINOMEscan)
Procedure: as §1

EPHB3 = target: T14, EPHB3 (Homo sapiens, UniProt P54753); settings: 35 at 1 µM; read-out: % inhibition
T14 construct: purchased Eurofins DiscoverX (KINOMEscan)
Procedure: as §1

EGFR(T790M) = target: T15, EGFR(T790M) (Homo sapiens, UniProt P00533, T790M); settings: 35 at 1 µM; read-out: % inhibition
T15 construct: purchased Eurofins DiscoverX (KINOMEscan)
Procedure: as §1

PIK3CA(E545K) = target: T16, PIK3CA(E545K) (Homo sapiens, UniProt P42336, E545K); settings: 35 at 1 µM; read-out: % inhibition
T16 construct: purchased Eurofins DiscoverX (KINOMEscan)
Procedure: as §1

WNK1 = target: T17, WNK1 (Homo sapiens, UniProt Q9H4A3); settings: 35 at 1 µM; read-out: % inhibition
T17 construct: purchased EuroFins DiscoverX (Fremont, CA, USA)
Procedure: as §1

MEK3 = target: T18, MEK3 (Homo sapiens, UniProt P46734); settings: 35 at 1 µM; read-out: % inhibition
T18 construct: purchased Eurofins DiscoverX (KINOMEscan)
Procedure: as §1

[2] = target: T19, RSK2(Kin.Dom.2-C-terminal) (Homo sapiens, UniProt P51812); settings: 35 at 1 µM; read-out: % inhibition
T19 construct: RSK2(Kin.Dom.2-C-terminal); purchased Eurofins DiscoverX (KINOMEscan)
Procedure: as §1

IRAK4 = target: T20, IRAK4 (Homo sapiens, UniProt Q9NWZ3); settings: 35 at 1 µM; read-out: % inhibition
T20 construct: purchased Eurofins DiscoverX (KINOMEscan)
Procedure: as §1

MEK5 = target: T21, MEK5 (Homo sapiens, UniProt Q13163)
T21 construct: purchased Eurofins DiscoverX (KINOMEscan)
T21 sequence (Q13163 whole entry): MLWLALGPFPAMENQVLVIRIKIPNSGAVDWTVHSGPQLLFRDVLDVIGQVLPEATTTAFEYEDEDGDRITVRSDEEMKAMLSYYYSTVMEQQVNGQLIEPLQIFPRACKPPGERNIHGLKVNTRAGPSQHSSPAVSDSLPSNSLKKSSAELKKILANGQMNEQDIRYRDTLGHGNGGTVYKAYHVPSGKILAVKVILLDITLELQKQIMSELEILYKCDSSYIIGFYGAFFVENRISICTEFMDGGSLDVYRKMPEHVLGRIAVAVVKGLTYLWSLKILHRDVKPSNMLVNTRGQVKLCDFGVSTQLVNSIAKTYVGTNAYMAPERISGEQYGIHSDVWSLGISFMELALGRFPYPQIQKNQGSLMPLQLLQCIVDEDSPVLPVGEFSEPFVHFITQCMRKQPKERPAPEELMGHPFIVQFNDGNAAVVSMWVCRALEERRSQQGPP
Procedure: as §1

CDC2L1 = target: T22, CDC2L1 (Homo sapiens, UniProt P21127); settings: 35 at 1 µM; read-out: % inhibition
T22 construct: purchased Eurofins DiscoverX (KINOMEscan)
Procedure: as §1

PKMYT1 = target: T23, PKMYT1 (Homo sapiens, UniProt Q99640); settings: 35 at 1 µM; read-out: % inhibition
T23 construct: purchased Eurofins DiscoverX (KINOMEscan)
Procedure: as §1

PIK3C2B = target: T24, PIK3C2B (Homo sapiens, UniProt O00750); settings: 35 at 1 µM; read-out: % inhibition
T24 construct: purchased Eurofins DiscoverX (KINOMEscan)
T24 sequence (O00750 whole entry): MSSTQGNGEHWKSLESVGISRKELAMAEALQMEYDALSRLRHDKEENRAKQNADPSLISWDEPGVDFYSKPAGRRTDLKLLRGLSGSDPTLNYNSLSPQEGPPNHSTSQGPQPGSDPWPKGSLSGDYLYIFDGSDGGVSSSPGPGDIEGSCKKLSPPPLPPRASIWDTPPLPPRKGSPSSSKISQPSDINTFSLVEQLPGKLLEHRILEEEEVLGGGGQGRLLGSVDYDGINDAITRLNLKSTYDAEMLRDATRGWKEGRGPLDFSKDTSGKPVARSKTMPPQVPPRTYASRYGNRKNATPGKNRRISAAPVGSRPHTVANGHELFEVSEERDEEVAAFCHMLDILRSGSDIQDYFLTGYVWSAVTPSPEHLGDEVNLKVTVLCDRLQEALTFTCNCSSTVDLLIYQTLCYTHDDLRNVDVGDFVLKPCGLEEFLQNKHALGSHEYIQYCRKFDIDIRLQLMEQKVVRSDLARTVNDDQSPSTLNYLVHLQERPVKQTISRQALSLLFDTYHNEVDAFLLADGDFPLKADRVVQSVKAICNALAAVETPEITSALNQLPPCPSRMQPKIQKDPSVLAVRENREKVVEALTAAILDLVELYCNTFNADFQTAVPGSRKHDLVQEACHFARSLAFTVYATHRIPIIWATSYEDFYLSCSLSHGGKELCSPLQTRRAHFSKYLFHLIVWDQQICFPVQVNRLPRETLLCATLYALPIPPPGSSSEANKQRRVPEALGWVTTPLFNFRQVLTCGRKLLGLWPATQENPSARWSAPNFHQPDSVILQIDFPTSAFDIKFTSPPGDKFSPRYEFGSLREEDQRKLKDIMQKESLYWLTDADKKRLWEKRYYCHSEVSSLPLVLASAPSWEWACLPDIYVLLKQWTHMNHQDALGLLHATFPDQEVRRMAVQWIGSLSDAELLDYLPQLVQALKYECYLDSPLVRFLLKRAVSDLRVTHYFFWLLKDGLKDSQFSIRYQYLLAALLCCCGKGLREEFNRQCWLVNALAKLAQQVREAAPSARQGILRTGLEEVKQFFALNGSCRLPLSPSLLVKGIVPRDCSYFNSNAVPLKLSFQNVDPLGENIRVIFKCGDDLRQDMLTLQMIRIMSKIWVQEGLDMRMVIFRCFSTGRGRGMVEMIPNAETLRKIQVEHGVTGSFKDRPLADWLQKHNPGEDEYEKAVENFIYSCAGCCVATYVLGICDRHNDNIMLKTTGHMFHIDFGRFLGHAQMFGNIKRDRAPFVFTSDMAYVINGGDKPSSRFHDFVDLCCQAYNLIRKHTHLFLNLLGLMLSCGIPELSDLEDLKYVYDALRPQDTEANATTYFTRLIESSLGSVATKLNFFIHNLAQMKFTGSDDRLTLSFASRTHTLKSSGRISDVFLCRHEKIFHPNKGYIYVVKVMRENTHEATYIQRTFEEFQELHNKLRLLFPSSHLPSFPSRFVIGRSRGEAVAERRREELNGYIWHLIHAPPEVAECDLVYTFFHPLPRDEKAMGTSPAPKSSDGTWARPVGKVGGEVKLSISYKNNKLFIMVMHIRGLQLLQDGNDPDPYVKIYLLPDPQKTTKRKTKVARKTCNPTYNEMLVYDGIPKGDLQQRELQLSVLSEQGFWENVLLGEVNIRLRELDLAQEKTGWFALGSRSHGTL
Procedure: as §1

SYK = target: T25, SYK (Homo sapiens, UniProt P43405); settings: 35 at 1 µM; read-out: % inhibition
T25 construct: purchased Eurofins DiscoverX (KINOMEscan)
Procedure: as §1

ERK8 = target: T26, ERK8 (Homo sapiens, UniProt Q8TD08); settings: 35 at 1 µM; read-out: % inhibition
T26 construct: purchased Eurofins DiscoverX (KINOMEscan)
Procedure: as §1

MET = target: T27, MET (Homo sapiens, UniProt P08581); settings: 35 at 1 µM; read-out: % inhibition
T27 construct: purchased Eurofins DiscoverX (KINOMEscan)
Procedure: as §1

MAP3K2 = target: T28, MAP3K2 (Homo sapiens, UniProt Q9Y2U5); settings: 35 at 1 µM; read-out: % inhibition
T28 construct: purchased Eurofins DiscoverX (KINOMEscan)
Procedure: as §1

ANKK1 = target: T29, ANKK1 (Homo sapiens, UniProt Q8NFD2); settings: 35 at 1 µM; read-out: % inhibition
T29 construct: purchased Eurofins DiscoverX (KINOMEscan)
Procedure: as §1

RET(V804L) = target: T30, RET(V804L) (Homo sapiens, UniProt P07949, V804L); settings: 35 at 1 µM; read-out: % inhibition
T30 construct: purchased Eurofins DiscoverX (KINOMEscan)
Procedure: as §1

RIOK2 = target: T31, RIOK2 (Homo sapiens, UniProt Q9BVS4); settings: 35 at 1 µM; read-out: % inhibition
T31 construct: purchased Eurofins DiscoverX (KINOMEscan)
T31 sequence (Q9BVS4 whole entry): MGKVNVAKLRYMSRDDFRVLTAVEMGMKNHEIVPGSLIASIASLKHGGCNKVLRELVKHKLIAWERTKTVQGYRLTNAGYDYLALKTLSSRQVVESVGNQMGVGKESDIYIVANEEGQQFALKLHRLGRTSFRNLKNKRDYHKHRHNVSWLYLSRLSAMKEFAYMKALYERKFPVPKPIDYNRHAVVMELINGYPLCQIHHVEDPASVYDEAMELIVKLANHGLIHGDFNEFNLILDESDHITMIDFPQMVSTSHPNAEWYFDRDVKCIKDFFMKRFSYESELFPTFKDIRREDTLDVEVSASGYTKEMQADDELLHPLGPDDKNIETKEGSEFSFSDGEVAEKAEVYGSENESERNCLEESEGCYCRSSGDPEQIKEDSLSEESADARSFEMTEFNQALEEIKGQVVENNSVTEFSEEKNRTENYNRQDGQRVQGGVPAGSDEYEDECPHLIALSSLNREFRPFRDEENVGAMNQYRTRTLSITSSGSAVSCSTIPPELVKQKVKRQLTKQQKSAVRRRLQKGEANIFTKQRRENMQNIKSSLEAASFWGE
Procedure: as §1

RET = target: T32, RET (Homo sapiens, UniProt P07949); settings: 35 at 1 µM; read-out: % inhibition
T32 construct: purchased Eurofins DiscoverX (KINOMEscan)
Procedure: as §1

[3] = target: T33, ABL1(F317I)-phosphorylated (Homo sapiens, UniProt P00519, F317I); settings: 35 at 1 µM; read-out: % inhibition
T33 construct: purchased Eurofins DiscoverX (KINOMEscan)
Procedure: as §1

DAPK2 = target: T34, DAPK2 (Homo sapiens, UniProt Q9UIK4); settings: 35 at 1 µM; read-out: % inhibition
T34 construct: purchased Eurofins DiscoverX (KINOMEscan)
T34 sequence (Q9UIK4 whole entry): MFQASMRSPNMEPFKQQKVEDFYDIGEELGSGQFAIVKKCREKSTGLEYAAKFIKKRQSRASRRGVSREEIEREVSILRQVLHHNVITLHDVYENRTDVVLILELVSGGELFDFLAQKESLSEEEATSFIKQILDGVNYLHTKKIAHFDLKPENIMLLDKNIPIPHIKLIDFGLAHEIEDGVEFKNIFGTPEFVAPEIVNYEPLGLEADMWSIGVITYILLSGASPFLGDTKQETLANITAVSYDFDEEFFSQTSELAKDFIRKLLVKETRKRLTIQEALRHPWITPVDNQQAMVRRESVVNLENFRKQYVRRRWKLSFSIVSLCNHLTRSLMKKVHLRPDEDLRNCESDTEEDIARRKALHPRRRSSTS
Procedure: as §1

MLK2 = target: T35, MLK2 (Homo sapiens, UniProt Q02779); settings: 35 at 1 µM; read-out: % inhibition
T35 construct: purchased Eurofins DiscoverX (KINOMEscan)
Procedure: as §1

NLK = target: T36, NLK (Homo sapiens, UniProt Q9UBE8); settings: 35 at 1 µM; read-out: % inhibition
T36 construct: purchased Eurofins DiscoverX (KINOMEscan)
Procedure: as §1

TRKA = target: T37, TRKA (Homo sapiens, UniProt P04629); settings: 35 at 1 µM; read-out: % inhibition
T37 construct: purchased Eurofins DiscoverX (KINOMEscan)
Procedure: as §1

ADCK3 = target: T38, ADCK3 (Homo sapiens, UniProt Q8NI60); settings: 35 at 1 µM; read-out: % inhibition
T38 construct: purchased Eurofins DiscoverX (KINOMEscan)
Procedure: as §1

MYO3A = target: T39, MYO3A (Homo sapiens, UniProt Q8NEV4); settings: 35 at 1 µM; read-out: % inhibition
T39 construct: purchased Eurofins DiscoverX (KINOMEscan)
Procedure: as §1

PAK3 = target: T40, PAK3 (Homo sapiens, UniProt O75914); settings: 35 at 1 µM; read-out: % inhibition
T40 construct: purchased Eurofins DiscoverX (KINOMEscan)
Procedure: as §1

KIT(D816V) = target: T41, KIT(D816V) (Homo sapiens, UniProt P10721, D816V); settings: 35 at 1 µM; read-out: % inhibition
T41 construct: purchased Eurofins DiscoverX (KINOMEscan)
Procedure: as §1

PDPK1 = target: T42, PDPK1 (Homo sapiens, UniProt O15530); settings: 35 at 1 µM; read-out: % inhibition
T42 construct: purchased Eurofins DiscoverX (KINOMEscan)
T42 sequence (O15530 whole entry): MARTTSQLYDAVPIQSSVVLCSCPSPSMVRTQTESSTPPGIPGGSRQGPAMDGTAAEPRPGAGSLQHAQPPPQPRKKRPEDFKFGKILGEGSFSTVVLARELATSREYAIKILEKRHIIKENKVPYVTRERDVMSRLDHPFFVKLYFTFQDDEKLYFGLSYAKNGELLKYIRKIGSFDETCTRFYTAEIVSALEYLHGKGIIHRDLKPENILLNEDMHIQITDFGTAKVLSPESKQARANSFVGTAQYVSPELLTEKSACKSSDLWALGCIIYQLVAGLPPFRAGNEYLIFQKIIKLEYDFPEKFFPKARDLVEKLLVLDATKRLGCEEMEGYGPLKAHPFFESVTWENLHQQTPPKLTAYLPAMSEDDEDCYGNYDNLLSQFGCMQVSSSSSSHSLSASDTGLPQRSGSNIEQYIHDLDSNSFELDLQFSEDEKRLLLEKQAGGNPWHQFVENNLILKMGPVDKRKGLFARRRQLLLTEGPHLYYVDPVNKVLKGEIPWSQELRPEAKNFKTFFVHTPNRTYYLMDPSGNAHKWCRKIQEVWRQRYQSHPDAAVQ
Procedure: as §1

Brc1ccc2nccc(Nc3ccc4cn[nH]c4c3)c2c1 [Compound 35, 6-Bromo-N-(1H-indazol-6-yl)quinolin-4-amine]
activity at 1 µM (SIK2): 97%
activity at 1 µM (TRKC): 82%
activity at 1 µM (WEE1): 100%
activity at 1 µM (CAMK2A): 100%
activity at 1 µM (PIP5K2C): 95%
activity at 1 µM (DAPK3): 88%
activity at 1 µM (p38-beta): 100%
activity at 1 µM (CAMK4): 100%
activity at 1 µM [1]: 81%
activity at 1 µM (CAMK1B): 92%
activity at 1 µM (FLT3(N841I)): 90%
activity at 1 µM (CLK3): 100%
activity at 1 µM (FLT1): 100%
activity at 1 µM (EPHB3): 100%
activity at 1 µM (EGFR(T790M)): 78%
activity at 1 µM (PIK3CA(E545K)): 66%
activity at 1 µM (WNK1): 100%
activity at 1 µM (MEK3): 86%
activity at 1 µM [2]: 100%
activity at 1 µM (IRAK4): 100%
activity at 1 µM (MEK5; 35 at 1 µM, read-out: % inhibition): 11%
inhibition at 1 µM (MEK5; KinomeScan, screened at 1 μM, read-out: kinases inhibited at 1 μM: MEK5): 89%
activity at 1 µM (CDC2L1): 100%
activity at 1 µM (PKMYT1): 100%
activity at 1 µM (PIK3C2B): 100%
activity at 1 µM (SYK): 89%
activity at 1 µM (ERK8): 100%
activity at 1 µM (MET): 100%
activity at 1 µM (MAP3K2): 100%
activity at 1 µM (ANKK1): 100%
activity at 1 µM (RET(V804L)): 97%
activity at 1 µM (RIOK2): 100%
activity at 1 µM (RET): 100%
activity at 1 µM [3]: 100%
activity at 1 µM (DAPK2): 100%
activity at 1 µM (MLK2): 100%
activity at 1 µM (NLK): 100%
activity at 1 µM (TRKA): 100%
activity at 1 µM (ADCK3): 100%
activity at 1 µM (MYO3A): 100%
activity at 1 µM (PAK3): 100%
activity at 1 µM (KIT(D816V)): 100%
activity at 1 µM (PDPK1): 100%
